Experimental data reported in US20220226337A1 (Gilead Sciences, Inc., priority 2018, published 2022).

Biological target: T1, α4β7 integrin interaction with MadCAM-1 (RPMI8866 cells) (Homo sapiens, UniProt P13612+P26010)
T1 construct: α4β7 integrin expressing cells; endogenous in cells; host or cells: RPMI8866 cells
T1 sequence (P13612 34-1032): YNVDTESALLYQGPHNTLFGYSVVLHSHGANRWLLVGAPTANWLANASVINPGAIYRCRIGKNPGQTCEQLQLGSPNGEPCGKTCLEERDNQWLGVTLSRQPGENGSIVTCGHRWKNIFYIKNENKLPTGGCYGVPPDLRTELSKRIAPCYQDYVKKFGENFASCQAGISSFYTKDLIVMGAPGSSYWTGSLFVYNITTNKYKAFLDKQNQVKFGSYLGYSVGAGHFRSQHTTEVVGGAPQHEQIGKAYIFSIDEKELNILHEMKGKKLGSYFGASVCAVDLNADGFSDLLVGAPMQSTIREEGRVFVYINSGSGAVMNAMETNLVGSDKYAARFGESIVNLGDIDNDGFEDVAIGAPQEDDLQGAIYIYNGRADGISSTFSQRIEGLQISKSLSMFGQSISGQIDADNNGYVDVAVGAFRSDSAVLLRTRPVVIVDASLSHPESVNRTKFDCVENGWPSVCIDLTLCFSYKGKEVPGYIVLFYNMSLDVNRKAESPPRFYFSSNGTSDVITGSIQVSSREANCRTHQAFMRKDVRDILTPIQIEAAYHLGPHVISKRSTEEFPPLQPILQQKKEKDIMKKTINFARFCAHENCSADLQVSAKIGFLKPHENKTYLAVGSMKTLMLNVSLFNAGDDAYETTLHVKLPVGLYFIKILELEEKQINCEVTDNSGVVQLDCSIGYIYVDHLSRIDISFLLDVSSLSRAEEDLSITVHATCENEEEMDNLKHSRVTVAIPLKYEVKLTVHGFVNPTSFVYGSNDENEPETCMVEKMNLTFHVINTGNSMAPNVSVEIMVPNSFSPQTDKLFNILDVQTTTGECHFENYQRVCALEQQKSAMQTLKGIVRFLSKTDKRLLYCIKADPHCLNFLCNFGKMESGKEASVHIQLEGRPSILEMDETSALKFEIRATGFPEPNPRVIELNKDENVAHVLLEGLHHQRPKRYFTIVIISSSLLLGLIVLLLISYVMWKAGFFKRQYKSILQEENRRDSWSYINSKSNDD
T1 sequence (P26010 20-798): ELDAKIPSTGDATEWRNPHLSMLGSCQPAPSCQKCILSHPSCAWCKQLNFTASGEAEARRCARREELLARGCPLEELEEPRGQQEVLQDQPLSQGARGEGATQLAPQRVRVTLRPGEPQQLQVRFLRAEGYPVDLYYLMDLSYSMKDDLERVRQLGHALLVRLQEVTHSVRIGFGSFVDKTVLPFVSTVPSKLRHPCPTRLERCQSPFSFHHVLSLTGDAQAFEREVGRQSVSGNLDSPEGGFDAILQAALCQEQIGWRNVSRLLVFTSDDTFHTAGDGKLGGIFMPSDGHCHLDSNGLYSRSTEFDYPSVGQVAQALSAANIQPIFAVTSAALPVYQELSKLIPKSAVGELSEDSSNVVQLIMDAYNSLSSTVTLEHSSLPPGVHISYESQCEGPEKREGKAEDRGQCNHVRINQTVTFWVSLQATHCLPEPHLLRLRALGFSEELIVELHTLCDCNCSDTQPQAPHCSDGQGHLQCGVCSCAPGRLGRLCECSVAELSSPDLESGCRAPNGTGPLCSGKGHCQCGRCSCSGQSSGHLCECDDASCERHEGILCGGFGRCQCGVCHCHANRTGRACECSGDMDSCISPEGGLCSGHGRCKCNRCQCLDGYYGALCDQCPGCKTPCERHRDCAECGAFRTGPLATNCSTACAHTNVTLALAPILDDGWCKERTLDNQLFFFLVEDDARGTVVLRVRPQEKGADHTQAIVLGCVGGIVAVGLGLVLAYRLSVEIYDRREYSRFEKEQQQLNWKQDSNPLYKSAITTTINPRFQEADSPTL
Assay: α4β7 Integrin Cell Capture Assay
Format: cell-based
Conditions: capture of α4β7 integrin expressing RPMI8866 cells on recombinant MadCAM-1 extracellular domain-coated plate; 0.5 mM MnCl2
Procedure, shortened: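 RPMI8866 cells (0.5×10^6 cells/mL in DMEM + 0.5% FBS + 0.5 mM MnCl2) preincubated with compound 1 h at 37 °C, then allowed to adhere 30 min at 37 °C to plates coated with MAdCAM-1 extracellular domain (1.0 μg/mL). Bound cells fixed with 2% glutaraldehyde, Hoechst-stained, imaged and counted; EC50 from cell count versus concentration.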

EC50 [nM] | Compound
0.633 | CC[C@@H](Nc1cc(F)c(C(=O)N[C@@H](Cc2ccc(-c3c(C(F)(F)F)cc(C)n(C)c3=O)c3c2CCCO3)C(=O)O)c(F)c1)C(F)(F)F [Example 43, (S)-2-(2,6-difluoro-4-(((R)-1,1,1-trifluorobutan-2-yl)amino)benzamido)-3-(8-(1,6-dimethyl-2-oxo-4-(trifluoromethyl)-1,2-dihydropyridin-3-yl)chroman-5-yl)propanoic acid]
0.25 | COc1cc(C)n(C)c(=O)c1-c1ccc(C[C@H](NC(=O)c2c(F)cc(N3CCOC[C@@H]3C(F)(F)F)cc2F)C(=O)O)c2c1OCCC2 [Example 46, (S)-2-(2,6-difluoro-4-((R)-3-(trifluoromethyl)morpholino)benzamido)-3-(8-(4-methoxy-1,6-dimethyl-2-oxo-1,2-dihydropyridin-3-yl)chroman-5-yl)propanoic acid]
0.58 | CC[C@@H](Nc1cc(F)c(C(=O)N[C@@H](Cc2ccc(-c3c(OC)cc(C)n(C)c3=O)c3c2CCCO3)C(=O)O)c(F)c1)C(F)(F)F [Example 47, (S)-2-(2,6-difluoro-4-(((R)-1,1,1-trifluorobutan-2-yl)amino)benzamido)-3-(8-(4-methoxy-1,6-dimethyl-2-oxo-1,2-dihydropyridin-3-yl)chroman-5-yl)propanoic acid]
1.23 | COc1cc(C)n(C)c(=O)c1-c1ccc(C[C@H](NC(=O)c2c(F)cc(N[C@H](C)C(F)(F)F)cc2F)C(=O)O)c2c1OCCC2 [Example 48, (S)-2-(2,6-difluoro-4-(((R)-1,1,1-trifluoropropan-2-yl)amino)benzamido)-3-(8-(4-methoxy-1,6-dimethyl-2-oxo-1,2-dihydropyridin-3-yl)chroman-5-yl)propanoic acid]
0.83 | CC[C@@H](Nc1cc(F)c(C(=O)N[C@@H](Cc2ccc(-c3nc(C)c(C)n(C)c3=O)c3c2CCCO3)C(=O)O)c(F)c1)C(F)(F)F [Example 49, (S)-2-(2,6-difluoro-4-(((R)-1,1,1-trifluorobutan-2-yl)amino)benzamido)-3-(8-(4,5,6-trimethyl-3-oxo-3,4-dihydropyrazin-2-yl)chroman-5-yl)propanoic acid]
43.4 | C[C@@H](Nc1cc(F)c(C(=O)N[C@@H](Cc2ccc(-c3c(Cl)cc(F)cc3Cl)c3c2CCCO3)C(=O)O)c(F)c1)C(F)(F)F [Example 50, (S)-3-(8-(2,6-dichloro-4-fluorophenyl)chroman-5-yl)-2-(2,6-difluoro-4-(((R)-1,1,1-trifluoropropan-2-yl)amino)benzamido)propanoic acid]
34 | O=C(N[C@@H](Cc1ccc(-c2c(Cl)cc(F)cc2Cl)c2c1OCCN2)C(=O)O)c1c(F)cccc1F [Example 51, (S)-3-(5-(2,6-dichloro-4-fluorophenyl)-3,4-dihydro-2H-benzo[b][1,4]oxazin-8-yl)-2-(2,6-difluorobenzamido)propanoic acid]
1.63 | CC[C@@H](Nc1cc(F)c(C(=O)N[C@@H](Cc2ccc(-c3c(C)cc(C)n(C)c3=O)c3c2CCCO3)C(=O)O)c(F)c1)C(F)(F)F [Example 52, (S)-2-(2,6-difluoro-4-(((R)-1,1,1-trifluorobutan-2-yl)amino)benzamido)-3-(8-(1,4,6-trimethyl-2-oxo-1,2-dihydropyridin-3-yl)chroman-5-yl)propanoic acid]
3.28 | Cc1cc(C)n(C)c(=O)c1-c1ccc(C[C@H](NC(=O)c2c(F)cc(N[C@H](C)C(F)(F)F)cc2F)C(=O)O)c2c1OCCC2 [Example 53, (S)-2-(2,6-difluoro-4-(((R)-1,1,1-trifluoropropan-2-yl)amino)benzamido)-3-(8-(1,4,6-trimethyl-2-oxo-1,2-dihydropyridin-3-yl)chroman-5-yl)propanoic acid]
0.607 | CC[C@@H](Nc1cc(F)c(C(=O)N[C@@H](Cc2ccc(-c3c(C)n(C)c(=O)n(C)c3=O)c3c2CCCO3)C(=O)O)c(F)c1)C(F)(F)F [Example 54, (S)-2-(2,6-difluoro-4-(((R)-1,1,1-trifluorobutan-2-yl)amino)benzamido)-3-(8-(1,3,6-trimethyl-2,4-dioxo-1,2,3,4-tetrahydropyrimidin-5-yl)chroman-5-yl)propanoic acid]
4.19 | Cc1c(-c2ccc(C[C@H](NC(=O)c3c(F)cccc3F)C(=O)O)c3c2OCCC3)c(=O)n(C)c2ccccc12 [Example 57, (S)-2-(2,6-difluorobenzamido)-3-(8-(1,4-dimethyl-2-oxo-1,2-dihydroquinolin-3-yl)chroman-5-yl)propanoic acid]
4.12 | Cc1c(-c2ccc(C[C@H](NC(=O)c3c(Cl)cccc3Cl)C(=O)O)c3c2OCCC3)c(=O)n(C)c2ccccc12 [Example 60, (S)-2-(2,6-dichlorobenzamido)-3-(8-(1,4-dimethyl-2-oxo-1,2-dihydroquinolin-3-yl)chroman-5-yl)propanoic acid]
7.99 | O=C(N[C@@H](Cc1ccc(-c2ncc3ccccc3c2Br)c2c1CCCO2)C(=O)O)c1c(Cl)cccc1Cl [Example 63, (S)-3-(8-(4-bromoisoquinolin-3-yl)chroman-5-yl)-2-(2,6-dichlorobenzamido) propanoic acid]
110 | O=C(N[C@@H](Cc1ccc(-c2cc(F)c(F)cc2OC2CC2)c2c1CCCO2)C(=O)O)c1c(Cl)cccc1Cl [Example 64, (S)-3-(8-(2-cyclopropoxy-4,5-difluorophenyl)chroman-5-yl)-2-(2,6-dichlorobenzamido)propanoic acid]
19.6 | O=C(N[C@@H](Cc1ccc(-c2ncc3ccccc3c2Br)c2c1CCCO2)C(=O)O)c1c(F)cccc1F [Example 65, (S)-3-(8-(4-bromoisoquinolin-3-yl)chroman-5-yl)-2-(2,6-difluorobenzamido)propanoic acid]
120 | O=C(N[C@@H](Cc1ccc(-c2cccc3c2OCCC3)c2c1CCCO2)C(=O)O)c1c(F)cccc1F [Example 66, (S)-3-([8,8′-bichroman]-5-yl)-2-(2,6-difluorobenzamido)propanoic acid]
40.9 | O=C(N[C@@H](Cc1ccc(-c2cccc3c2OCCC3)c2c1CCCO2)C(=O)O)c1c(Cl)cccc1Cl [Example 67, (S)-3-([8,8′-bichroman]-5-yl)-2-(2,6-dichlorobenzamido)propanoic acid]
56.5 | O=C(N[C@@H](Cc1ccc(-c2cc(F)c(F)cc2OC2CC2)c2c1CCCO2)C(=O)O)c1c(F)cccc1F [Example 68, (S)-3-(8-(2-cyclopropoxy-4,5-difluorophenyl)chroman-5-yl)-2-(2,6-difluorobenzamido)propanoic acid]
158 | Cn1nc(-c2ccc(C[C@H](NC(=O)c3c(Cl)cccc3Cl)C(=O)O)c3c2OCCC3)c2ccccc21 [Example 69, (S)-2-(2,6-dichlorobenzamido)-3-(8-(1-methyl-1H-indazol-3-yl)chroman-5-yl)propanoic acid]
30.5 | COc1cc(F)c(F)cc1-c1ccc(C[C@H](NC(=O)c2c(Cl)cccc2Cl)C(=O)O)c2c1OCCC2 [Example 70, (S)-2-(2,6-dichlorobenzamido)-3-(8-(4,5-difluoro-2-methoxyphenyl)chroman-5-yl)propanoic acid]
